Reference: patent US7803801B2, “Aminopyridine compounds having Syk inhibitory activity” (Japan Tobacco, Inc., priority 2005, dated 2010)

Legend:
[1] = system: cultured human mast cells; assay: Degranulation inhibition test using cultured human mast cells (IgE cross-linking, β-Hexosaminidase release); format: cell-based; settings: Mast cell; cultured human mast cells, anti-hIgE stimulation, β-Hexosaminidase index, average; read-out: human degranulation ave. IC50
Method in brief: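 Degranulation was triggered by anti-hIgE (10 μg/mL final, 30 min, 37 °C) after a 10-min compound pretreatment (DMSO 0.1%) of cord-blood CD34+-derived mast cells primed 5 days with IL-4 and IgE. β-Hexosaminidase in supernatant was measured with p-nitrophenyl-GlcNAc substrate (A405), expressed against water-lysed total; IC50 (M).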

[2] = target: GST-Syk Full Protein (human) (Homo sapiens, UniProt P43405); assay: Syk kinase inhibition test (HTRF method); format: biochemical; settings: HTRF, 100 μM ATP, 30 min room temperature, average; read-out: sykHTRF ave IC50
Method in brief: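 HTRF read-out: after EDTA termination and 1 h with XL665-streptavidin and Eu-anti-phosphotyrosine, the 665/620 nm ratio was measured. The reaction ran 30 min at 20–25 °C with final 6.4 nM human GST-Syk, 250 nM biotinylated peptide, 100 μM ATP, pH 7.0 HEPES buffer, 2% DMSO.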

Row | IC50 [1] | IC50 [2] | Structure (SMILES)
1 | > 1 µM | 0.1 to 1 µM | COc1ccc(C[C@H](NC(C)=O)c2ncc(-c3cccc(Nc4cc(C)ccn4)n3)s2)cc1OC [Compound A-139]
2 | > 1 µM | 0.1 to 1 µM | CC(=O)N[C@@H](Cc1ccc(OCCO)cc1)c1ncc(-c2cccc(Nc3cc(C)ccn3)n2)s1 [Compound A-140]
3 | 0.1 to 1 µM | 0.1 to 1 µM | Cc1ccnc(Nc2cccc(-c3cnc([C@H](C)NC(=O)C4CC4)s3)n2)c1 [Compound A-141]
4 | > 1 µM | 0.1 to 1 µM | Cc1ccnc(Nc2cccc(-c3cnc(CN)s3)n2)c1 [Compound A-142]
5 | 0.1 to 1 µM | 0.1 to 1 µM | CC(=O)NCc1ncc(-c2cccc(Nc3cc(C)ccn3)n2)s1 [Compound A-143]
6 | > 1 µM | > 1 µM | CCOC(=O)CC(C)(C)c1ncc(-c2cccc(Nc3cc(C)ccn3)n2)s1 [Compound A-144]
7 | > 1 µM | 0.1 to 1 µM | Cc1ccnc(Nc2cccc(-c3cnc(C(C)(C)CC(=O)O)s3)n2)c1 [Compound A-145]
8 | 0.1 to 1 µM | 0.1 to 1 µM | CC(=O)OCC(=O)N[C@@H](C)c1ncc(-c2cccc(Nc3cc(C)ccn3)n2)s1 [Compound A-146]
9 | 0.1 to 1 µM | < 0.1 µM | Cc1ccnc(Nc2cccc(-c3cnc([C@H](C)NC(=O)CO)s3)n2)c1 [Compound A-147, 2-hydroxy-N—((S)-1-{5-[6-(4-methylpyridin-2-ylamino)pyridin-2-yl]thiazol-2-yl}ethyl)acetamide]
10 | > 1 µM | < 0.1 µM | Cc1ccnc(Nc2cccc(-c3cnc(C(=O)NCCC(=O)O)s3)n2)c1 [Compound A-148, 3-({5-[6-(4-methylpyridin-2-ylamino)pyridin-2-yl]thiazole-2-carbonyl}amino)propionic acid]
11 | > 1 µM | 0.1 to 1 µM | Cc1ccnc(Nc2cccc(-c3cnc([C@H](N)c4ccc(OCc5ccccc5)cc4)s3)n2)c1 [Compound A-150]
12 | 0.1 to 1 µM | < 0.1 µM | Cc1ccnc(Nc2cccc(-c3cnc(CCc4ccc(C(=O)O)cc4)s3)n2)c1 [Compound A-151, 4-(2-{5-[6-(4-methylpyridin-2-ylamino)pyridin-2-yl]thiazol-2-yl}ethyl)benzoic acid]
13 | 0.1 to 1 µM | < 0.1 µM | Cc1ccnc(Nc2cccc(-c3cnc(CN4CCC(O)CC4)s3)n2)c1 [Compound A-152, 1-{5-[6-(4-methylpyridin-2-ylamino)pyridin-2-yl]thiazol-2-ylmethyl}piperidin-4-ol]
14 | > 1 µM | 0.1 to 1 µM | COC(=O)C(C)(C)NC(=O)c1ncc(-c2cccc(Nc3cc(C)ccn3)n2)s1 [Compound A-153]
15 | > 1 µM | 0.1 to 1 µM | Cc1ccnc(Nc2cccc(-c3cnc(C(=O)NC(C)(C)C(=O)O)s3)n2)c1 [Compound A-154]
16 | > 1 µM | 0.1 to 1 µM | CCOC(=O)CC(C)(C)NC(=O)c1ncc(-c2cccc(Nc3cc(C)ccn3)n2)s1 [Compound A-155]
17 | > 1 µM | 0.1 to 1 µM | Cc1ccnc(Nc2cccc(-c3cnc(CC(C)(C)CC(=O)O)s3)n2)c1 [Compound A-157]
18 | 0.1 to 1 µM | < 0.1 µM | Cc1ccnc(Nc2cccc(-c3cnc(CC(C)(C)CCO)s3)n2)c1 [Compound A-158, 3,3-dimethyl-4-{5-[6-(4-methylpyridin-2-ylamino)pyridin-2-yl]thiazol-2-yl}butan-1-ol]
19 | 0.1 to 1 µM | < 0.1 µM | Cc1ccnc(Nc2cccc(-c3cnc(CCc4ccc(CO)cc4)s3)n2)c1 [Compound A-159, [4-(2-{5-[6-(4-methylpyridin-2-ylamino)pyridin-2-yl]thiazol-2-yl}ethyl)phenyl]methanol]
20 | > 1 µM | 0.1 to 1 µM | CC(=O)N[C@H](c1ccc(OCc2ccccc2)cc1)c1ncc(-c2cccc(Nc3cc(C)ccn3)n2)s1 [Compound A-160]
21 | 0.1 to 1 µM | < 0.1 µM | CC(=O)N[C@H](c1ccc(O)cc1)c1ncc(-c2cccc(Nc3cc(C)ccn3)n2)s1 [Compound A-161, N—((R)-(4-hydroxyphenyl)-{5-[6-(4-methylpyridin-2-ylamino)pyridin-2-yl]thiazol-2-yl}methyl)acetamide]
22 | 0.1 to 1 µM | < 0.1 µM | Cc1ccnc(Nc2cccc(-c3cnc(CCc4ccc(C(=O)NCCO)cc4)s3)n2)c1 [Compound A-162, N-(2-hydroxyethyl)-4-(2-{5-[6-(4-methylpyridin-2-ylamino)pyridin-2-yl]thiazol-2-yl}ethyl)benzamide]
23 | > 1 µM | 0.1 to 1 µM | COC(=O)CCNCc1ncc(-c2cccc(Nc3cc(C)ccn3)n2)s1 [Compound A-163]
24 | > 1 µM | 0.1 to 1 µM | COC(=O)CCN(Cc1ncc(-c2cccc(Nc3cc(C)ccn3)n2)s1)C(C)=O [Compound A-164]

Row | IC50 [1] | IC50 [2] | Structure (SMILES)
25 | > 1 µM | 0.1 to 1 µM | Cc1ccnc(Nc2cccc(-c3cnc(CNCCC(=O)O)s3)n2)c1 [Compound A-165]
26 | > 1 µM | > 1 µM | CC(=O)N[C@@H](C)c1ncc(-c2cccc(Nc3cc(OCCN(C)C)ccn3)n2)s1 [Compound A-166]
27 | > 1 µM | 0.1 to 1 µM | CCOC(=O)C1CCN(Cc2ncc(-c3cccc(Nc4cc(C)ccn4)n3)s2)CC1 [Compound A-167]
28 | > 1 µM | 0.1 to 1 µM | Cc1ccnc(Nc2cccc(-c3cnc(CN4CCC(C(=O)O)CC4)s3)n2)c1 [Compound A-168]
29 | > 1 µM | 0.1 to 1 µM | Cc1ccnc(Nc2cccc(-c3cnc(CNC(=O)CC(=O)O)s3)n2)c1 [Compound A-169]
30 | 0.1 to 1 µM | 0.1 to 1 µM | COC(=O)N1CCC(c2ncc(-c3cccc(Nc4cc(C)ccn4)n3)s2)CC1 [Compound A-170]
31 | > 1 µM | 0.1 to 1 µM | Cc1ccnc(Nc2cccc(-c3cnc(CCCCC(=O)NS(C)(=O)=O)s3)n2)c1 [Compound A-171]
32 | 0.1 to 1 µM | < 0.1 µM | Cc1ccnc(Nc2cccc(-c3cnc(CCC4CCC(=O)CC4)s3)n2)c1 [Compound A-172, 4-(2-{5-[6-(4-methylpyridin-2-ylamino)pyridin-2-yl]thiazol-2-yl}ethyl)cyclohexanone]
33 | 0.1 to 1 µM | < 0.1 µM | Cc1ccnc(Nc2cccc(-c3cnc(CCC4CCC(O)CC4)s3)n2)c1 (stereo not drawn) [Compound A-173, 4-(2-{5-[6-(4-methylpyridin-2-ylamino)pyridin-2-yl]thiazol-2-yl}ethyl)cyclohexanol]
34 | 0.1 to 1 µM | < 0.1 µM | Cc1ccnc(Nc2cccc(-c3cnc([C@H]4CC[C@H](C(=O)N5C[C@@H](O)[C@@H](O)C5)CC4)s3)n2)c1 [Compound A-174, ((3R,4S)-3,4-dihydroxypyrrolidin-1-yl)-(trans-4-{5-[6-(4-methylpyridin-2-ylamino)pyridin-2-yl]thiazol-2-yl}cyclohexyl)methanone]
35 | 0.1 to 1 µM | 0.1 to 1 µM | Cc1ccnc(Nc2cccc(-c3cnc([C@H]4CC[C@H](C(=O)NC(C)(C)CO)CC4)s3)n2)c1 [Compound A-175]
36 | > 1 µM | < 0.1 µM | Cc1ccnc(Nc2cccc(-c3cnc([C@H]4CC[C@H](C(=O)N5CCNCC5)CC4)s3)n2)c1 [Compound A-176, (trans-4-{5-[6-(4-methylpyridin-2-ylamino)pyridin-2-yl]thiazol-2-yl}cyclohexyl)-(piperazin-1-yl)methanone]
37 | > 1 µM | 0.1 to 1 µM | Cc1ccnc(Nc2cccc(-c3cnc([C@@H](N)Cc4ccc(NC(=O)OCc5ccccc5)cc4)s3)n2)c1 [Compound A-177]
38 | > 1 µM | > 1 µM | CC(=O)N[C@@H](Cc1ccc(NC(=O)OCc2ccccc2)cc1)c1ncc(-c2cccc(Nc3cc(C)ccn3)n2)s1 [Compound A-178]
39 | 0.1 to 1 µM | 0.1 to 1 µM | CC(=O)Nc1ccc(C[C@H](NC(C)=O)c2ncc(-c3cccc(Nc4cc(C)ccn4)n3)s2)cc1 [Compound A-179]
40 | > 1 µM | 0.1 to 1 µM | Cc1ccnc(Nc2cccc(-c3cnc([C@@H](N)Cc4ccc(N)cc4)s3)n2)c1 [Compound A-180]
41 | > 1 µM | 0.1 to 1 µM | CC(=O)N(CCC(=O)O)Cc1ncc(-c2cccc(Nc3cc(C)ccn3)n2)s1 [Compound A-181]
42 | 0.1 to 1 µM | < 0.1 µM | Cc1ccnc(Nc2cccc(-c3cnc(C4CCN(C(N)=O)CC4)s3)n2)c1 [Compound A-182, 4-{5-[6-(4-methylpyridin-2-ylamino)pyridin-2-yl]thiazol-2-yl}piperidine-1-carboxamide]
43 | > 1 µM | 0.1 to 1 µM | Cc1ccnc(Nc2cccc(-c3cnc(C4CCN(C)CC4)s3)n2)c1 [Compound A-183]
44 | 0.1 to 1 µM | 0.1 to 1 µM | COC(=O)CN1CCC(c2ncc(-c3cccc(Nc4cc(C)ccn4)n3)s2)CC1 [Compound A-184]
45 | > 1 µM | 0.1 to 1 µM | Cc1ccnc(Nc2cccc(-c3cnc(C4CCN(CC(=O)O)CC4)s3)n2)c1 [Compound A-185]
46 | 0.1 to 1 µM | 0.1 to 1 µM | Cc1ccnc(Nc2cccc(-c3cnc(CNC(=O)CCO)s3)n2)c1 [Compound A-186]
47 | 0.1 to 1 µM | < 0.1 µM | Cc1ccnc(Nc2cccc(-c3cnc(C4CCN(C(=O)CO)CC4)s3)n2)c1 [Compound A-187, 2-hydroxy-1-(4-{5-[6-(4-methylpyridin-2-ylamino)pyridin-2-yl]thiazol-2-yl}piperidin-1-yl)ethanone]
48 | 0.1 to 1 µM | < 0.1 µM | COc1ccnc(Nc2cccc(-c3cnc([C@H]4CC[C@H](C(=O)O)CC4)s3)n2)c1 [Compound A-188, trans-4-{5-[6-(4-methoxypyridin-2-ylamino)pyridin-2-yl]thiazol-2-yl}cyclohexanecarboxylic acid]
